Laboratory results published in publication PMC8285539, “Tetrasubstituted imidazoles as incognito Toll-like receptor 8 a(nta)gonists” (Nature Communications, 2021).

Molecular target: T1, TLR8 (Homo sapiens, UniProt Q9NR97)
T1 sequence (Q9NR97 27-827): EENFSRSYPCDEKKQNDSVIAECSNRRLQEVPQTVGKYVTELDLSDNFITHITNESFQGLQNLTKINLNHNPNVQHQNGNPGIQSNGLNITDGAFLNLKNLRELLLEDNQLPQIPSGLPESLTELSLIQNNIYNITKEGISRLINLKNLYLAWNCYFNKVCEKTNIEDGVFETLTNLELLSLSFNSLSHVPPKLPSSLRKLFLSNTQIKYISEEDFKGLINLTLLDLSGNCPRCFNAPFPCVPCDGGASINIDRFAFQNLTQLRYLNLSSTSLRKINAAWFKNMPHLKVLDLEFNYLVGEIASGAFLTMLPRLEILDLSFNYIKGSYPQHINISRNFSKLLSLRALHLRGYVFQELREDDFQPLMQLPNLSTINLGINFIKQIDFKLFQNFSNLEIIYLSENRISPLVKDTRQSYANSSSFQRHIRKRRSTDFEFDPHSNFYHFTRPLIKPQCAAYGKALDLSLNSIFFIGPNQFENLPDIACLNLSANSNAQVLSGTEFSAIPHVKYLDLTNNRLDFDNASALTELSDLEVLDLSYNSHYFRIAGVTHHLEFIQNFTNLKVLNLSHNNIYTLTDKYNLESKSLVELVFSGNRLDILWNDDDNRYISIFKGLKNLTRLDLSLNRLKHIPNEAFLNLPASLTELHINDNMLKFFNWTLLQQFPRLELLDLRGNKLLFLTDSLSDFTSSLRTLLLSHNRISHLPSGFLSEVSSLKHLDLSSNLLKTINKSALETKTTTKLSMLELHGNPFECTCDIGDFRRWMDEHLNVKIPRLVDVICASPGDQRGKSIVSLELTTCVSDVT
Assay: ITC
Type: binding

O=c1ccn([C@@H]2O[C@H](CO)[C@@H](O)[C@H]2O)c(=O)[nH]1 [uridine]
Kd: 12 µM
